Measurements: US6737383B1, “Herbicidal oxadiazolidines” (priority 1999, dated 2004)

Columns and labels:
crabgrass = assay: Test B pre/postemergence crabgrass; type: in vivo, Digitaria sanguinalis
Summary of the method: (§1)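 Test chemicals in a non-phytotoxic solvent mixture with surfactant were sprayed preemergence onto planted seeds and postemergence onto plants 2 to 18 cm tall (1- to 4-leaf stage). After twelve to sixteen days in a greenhouse, injury was visually rated against untreated controls from 0 (no effect) to 10 (complete control).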

cocklebur = assay: Test B pre/postemergence cocklebur; type: in vivo, Xanthium strumarium
Summary of the method: as §1

blackgrass = assay: Test B pre/postemergence blackgrass; type: in vivo, Alopecurus myosuroides
Summary of the method: as §1

wheat = assay: Test B pre/postemergence wheat; type: in vivo, Triticum aestivum
Summary of the method: as §1

rape = assay: Test B pre/postemergence rape; type: in vivo, Brassica napus
Summary of the method: as §1

bedstraw = assay: Test B pre/postemergence bedstraw; type: in vivo, Galium aparine
Summary of the method: as §1

giant foxtail = assay: Test B pre/postemergence giant foxtail; type: in vivo, Setaria faberii
Summary of the method: as §1

wild oat = assay: Test B pre/postemergence wild oat; type: in vivo, Avena fatua
Summary of the method: as §1

sugar beet = assay: Test B pre/postemergence sugar beet; type: in vivo, Beta vulgaris
Summary of the method: as §1

pigweed = assay: Test B pre/postemergence pigweed; type: in vivo, Amaranthus retroflexus
Summary of the method: as §1

corn = assay: Test B pre/postemergence corn; type: in vivo, Zea mays
Summary of the method: as §1

surinam grass = assay: Test B pre/postemergence surinam grass; type: in vivo, Brachiaria decumbens
Summary of the method: as §1

morningglory = assay: Test B pre/postemergence morningglory; type: in vivo, Ipomoea hederacea
Summary of the method: as §1

velvetleaf = assay: Test B pre/postemergence velvetleaf; type: in vivo, Abutilon theophrasti
Summary of the method: as §1

soybean = assay: Test B pre/postemergence soybean; type: in vivo, Glycine max
Summary of the method: as §1

purple nutsedge = assay: Test B pre/postemergence purple nutsedge; type: in vivo, Cyperus rotundus
Summary of the method: as §1

[1] = Postemergence, Rate 125 g/ha, scale 0 to 10, 0 is no effect, 10 is complete control
[2] = Postemergence, Rate 250 g/ha, scale 0 to 10
[3] = Postemergence, Rate 500 g/ha, scale 0 to 10, 0 is no effect, 10 is complete control
[4] = Preemergence, Rate 62 g/ha, scale of 0 to 10 where 0 is no effect and 10 is complete control
[5] = Preemergence, Rate 125 g/ha, scale 0 to 10, 0 is no effect, 10 is complete control
[6] = Preemergence, Rate 500 g/ha, scale of 0 to 10 where 0 is no effect and 10 is complete control
[7] = Rate 62 g/ha, Postemergence, scale 0 to 10, 0 no effect, 10 complete control
[8] = Preemergence, Rate 250 g/ha, scale 0 to 10, 0 is no effect, 10 is complete control
[9] = Preemergence, Rate 500 g/ha, scale 0 to 10, 0 is no effect, 10 is complete control

CC(C)N(C(=O)n1oc(=O)n(CC2=CCCN(C)C2)c1=O)c1ccccc1 [Compound 497]
Crabgrass plant response rating (crabgrass; [1]): 0
Crabgrass plant response rating (crabgrass; [2]): 0
Plant response rating, Crabgrass (crabgrass; [3]): 0
Plant response rating, Crabgrass (crabgrass; [4]): 0
Crabgrass plant response rating (crabgrass; [5]): 0
Crabgrass plant response rating (crabgrass; [6]): 0
Crabgrass plant response rating (crabgrass; [7]): 0
Cocklebur plant response rating (cocklebur; [1]): 0
Cocklebur plant response rating (cocklebur; [2]): 0
Plant response rating, Cocklebur (cocklebur; [3]): 0
Plant response rating, Cocklebur (cocklebur; [4]): 0
Cocklebur plant response rating (cocklebur; [5]): 0
Cocklebur plant response rating (cocklebur; [8]): 0
Cocklebur plant response rating (cocklebur; [6]): 0
Cocklebur plant response rating (cocklebur; [7]): 0
Blackgrass plant response rating (blackgrass; [1]): 0
Blackgrass plant response rating (blackgrass; [2]): 0
Plant response rating, Blackgrass (blackgrass; [3]): 0
Plant response rating, Blackgrass (blackgrass; [4]): 0
Blackgrass plant response rating (blackgrass; [5]): 0
Blackgrass plant response rating (blackgrass; [8]): 0
Blackgrass plant response rating (blackgrass; [6]): 0
Blackgrass plant response rating (blackgrass; [7]): 0
Wheat plant response rating (wheat; [1]): 0
Plant response rating, Wheat (wheat; [3]): 0
Plant response rating, Wheat (wheat; [4]): 0
Wheat plant response rating (wheat; [5]): 0
Wheat plant response rating (wheat; [6]): 0
Wheat plant response rating (wheat; [7]): 0
Rape plant response rating (rape; [1]): 0
Plant response rating, Rape (rape; [3]): 0
Plant response rating, Rape (rape; [4]): 0
Rape plant response rating (rape; [5]): 0
Rape plant response rating (rape; [6]): 0
Rape plant response rating (rape; [7]): 0
Bedstraw plant response rating (bedstraw; [1]): 0
Plant response rating, Bedstraw (bedstraw; [4]): 0
Bedstraw plant response rating (bedstraw; [8]): 0
Bedstraw plant response rating (bedstraw; [9]): 0
Bedstraw plant response rating (bedstraw; [7]): 0
Giant foxtail plant response rating (giant foxtail; [1]): 0
Plant response rating, Giant foxtail (giant foxtail; [3]): 0
Plant response rating, Giant foxtail (giant foxtail; [4]): 0
Giant foxtail plant response rating (giant foxtail; [5]): 0
Giant foxtail plant response rating (giant foxtail; [6]): 0
Giant foxtail plant response rating (giant foxtail; [7]): 0
Wild oats plant response rating (wild oat; [1]): 0
Plant response rating, Wild oats (wild oat; [3]): 0
Plant response rating, Wild oats (wild oat; [4]): 0
Wild oats plant response rating (wild oat; [5]): 0
Wild oats plant response rating (wild oat; [6]): 0
Wild oats plant response rating (wild oat; [7]): 0
Sugarbeets plant response rating (sugar beet; [1]): 0
Plant response rating, Sugarbeets (sugar beet; [3]): 0
Plant response rating, Sugarbeets (sugar beet; [4]): 0
Sugarbeets plant response rating (sugar beet; [5]): 0
Sugarbeets plant response rating (sugar beet; [6]): 0
Sugarbeets plant response rating (sugar beet; [7]): 0
Redroot pigweed plant response rating (pigweed; [1]): 0
Plant response rating, Redroot pigweed (pigweed; [3]): 0
Plant response rating, Redroot pigweed (pigweed; [4]): 0
Redroot pigweed plant response rating (pigweed; [5]): 0
Redroot pigweed plant response rating (pigweed; [6]): 0
Redroot pigweed plant response rating (pigweed; [7]): 0
Corn plant response rating (corn; [1]): 0
Corn plant response rating (corn; [2]): 0
Plant response rating, Corn (corn; [3]): 0
Plant response rating, Corn (corn; [4]): 0
Corn plant response rating (corn; [5]): 0
Corn plant response rating (corn; [6]): 0
Corn plant response rating (corn; [7]): 0
B. signalgrass plant response rating (surinam grass; [1]): 0
B. signalgrass plant response rating (surinam grass; Postemergence, Rate 250 g/ha, scale 0 to 10, 0 no effect, 10 complete control): 0
Plant response rating, B. signalgrass (surinam grass; [3]): 0
Plant response rating, B. signalgrass (surinam grass; [4]): 0
B. signalgrass plant response rating (surinam grass; [5]): 0
B. signalgrass plant response rating (surinam grass; [8]): 0
B. signalgrass plant response rating (surinam grass; [9]): 0
B. signalgrass plant response rating (surinam grass; [7]): 0
Morningglory plant response rating (morningglory; [1]): 0
Plant response rating, Morningglory (morningglory; [3]): 0
Plant response rating, Morningglory (morningglory; [4]): 0
Morningglory plant response rating (morningglory; [5]): 0
Morningglory plant response rating (morningglory; [6]): 0
Morningglory plant response rating (morningglory; [7]): 0
Velvetleaf plant response rating (velvetleaf; [1]): 0
Plant response rating, Velvetleaf (velvetleaf; [3]): 0
Plant response rating, Velvetleaf (velvetleaf; [4]): 0
Velvetleaf plant response rating (velvetleaf; [5]): 0
Velvetleaf plant response rating (velvetleaf; [6]): 0
Velvetleaf plant response rating (velvetleaf; [7]): 0
Soybean plant response rating (soybean; [1]): 1
Plant response rating, Soybean (soybean; [3]): 2
Plant response rating, Soybean (soybean; [4]): 0
Soybean plant response rating (soybean; [5]): 0
Soybean plant response rating (soybean; [6]): 0
Soybean plant response rating (soybean; [7]): 0
Nutsedge plant response rating (purple nutsedge; [1]): 0
Plant response rating, Nutsedge (purple nutsedge; [3]): 0
Plant response rating, Nutsedge (purple nutsedge; [4]): 0
Nutsedge plant response rating (purple nutsedge; [5]): 0
Nutsedge plant response rating (purple nutsedge; [6]): 0
Nutsedge plant response rating (purple nutsedge; [7]): 0
